From paper PMC8222254, “Self-assembly of an anion receptor with metal-dependent kinase inhibition and potent in vitro anti-cancer properties” (Nature Communications, 2021)
Where “and” joins values, the source holds several entries; their conditions need not be identical. Equal values may be shown once.

Experiments:
Assay in all cases: Kinase inhibition screen, cell-free 33P ATP assay at 10 μM
Type in all cases: biochemical
[1] = target: 140 purified human kinases (Homo sapiens, UniProt P41240); details: CSK
Description: (§1) [L2Cu3]^6+ and [L2Zn3]^6+ were submitted to the MRC Protein Phosphorylation and Ubiquitination Unit International Centre for Kinase Profiling (University of Dundee) and tested in duplicate (at 10 μM) against a series of 140 purified human kinases in a cell-free kinase assay using ^33P ATP[55],[56]. The kinase gene IDs from the screen were then translated into common IDs (HGNC symbol) using biomaRt package[57],[58] in R[59] and R Studio[60] and used as input to the KinMap programme.

[2] = target: T1, 140 purified human kinases (Homo sapiens, UniProt Q92630)
T1 sequence (Q92630 1-601): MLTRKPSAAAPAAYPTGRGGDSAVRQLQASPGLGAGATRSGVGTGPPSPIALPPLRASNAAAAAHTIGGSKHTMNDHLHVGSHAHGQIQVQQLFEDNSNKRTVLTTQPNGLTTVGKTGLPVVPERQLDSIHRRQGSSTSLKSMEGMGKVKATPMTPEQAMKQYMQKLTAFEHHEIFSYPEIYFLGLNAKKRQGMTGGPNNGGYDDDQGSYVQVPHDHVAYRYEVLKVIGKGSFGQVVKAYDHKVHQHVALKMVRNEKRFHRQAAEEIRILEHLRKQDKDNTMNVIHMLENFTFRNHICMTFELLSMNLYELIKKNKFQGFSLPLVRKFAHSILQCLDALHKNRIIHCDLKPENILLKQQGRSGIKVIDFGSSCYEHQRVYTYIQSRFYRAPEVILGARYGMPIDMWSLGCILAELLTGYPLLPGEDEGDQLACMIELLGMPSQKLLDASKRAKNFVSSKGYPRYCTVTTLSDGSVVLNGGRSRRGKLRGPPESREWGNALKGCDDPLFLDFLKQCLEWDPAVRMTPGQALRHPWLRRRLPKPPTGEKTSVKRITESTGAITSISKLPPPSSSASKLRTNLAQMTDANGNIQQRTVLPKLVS
Description: as §1

[3] = target: T2, 140 purified human kinases (Homo sapiens, UniProt O15530)
T2 sequence (O15530 1-556): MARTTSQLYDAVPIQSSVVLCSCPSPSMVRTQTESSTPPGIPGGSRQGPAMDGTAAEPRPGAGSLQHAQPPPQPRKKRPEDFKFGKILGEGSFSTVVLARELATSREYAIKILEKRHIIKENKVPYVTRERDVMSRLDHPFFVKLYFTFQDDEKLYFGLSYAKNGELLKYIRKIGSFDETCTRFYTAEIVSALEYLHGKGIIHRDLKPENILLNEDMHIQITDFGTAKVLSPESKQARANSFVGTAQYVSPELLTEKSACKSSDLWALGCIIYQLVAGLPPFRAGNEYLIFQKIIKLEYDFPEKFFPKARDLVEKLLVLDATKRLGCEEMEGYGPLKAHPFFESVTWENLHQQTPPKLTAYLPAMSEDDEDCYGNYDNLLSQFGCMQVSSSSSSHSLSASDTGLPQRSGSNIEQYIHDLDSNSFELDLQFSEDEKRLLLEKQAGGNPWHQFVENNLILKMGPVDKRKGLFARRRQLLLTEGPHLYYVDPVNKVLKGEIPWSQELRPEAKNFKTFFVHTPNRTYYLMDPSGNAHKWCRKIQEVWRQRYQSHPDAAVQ
Description: as §1

[4] = target: 140 purified human kinases (Homo sapiens, UniProt Q16644); details: for % Activity inhibition Mean / % Activity inhibition Run 1 / % Activity inhibition Run 2 / % Activity remaining Run 1 / % Activity remaining Run 2: 10 µM
Description: as §1

[5] = target: 140 purified human kinases (Homo sapiens, UniProt P08069); details: IGF-1R
Description: as §1

[6] = target: T3, 140 purified human kinases (Homo sapiens, UniProt Q15139)
T3 sequence (Q15139 1-912): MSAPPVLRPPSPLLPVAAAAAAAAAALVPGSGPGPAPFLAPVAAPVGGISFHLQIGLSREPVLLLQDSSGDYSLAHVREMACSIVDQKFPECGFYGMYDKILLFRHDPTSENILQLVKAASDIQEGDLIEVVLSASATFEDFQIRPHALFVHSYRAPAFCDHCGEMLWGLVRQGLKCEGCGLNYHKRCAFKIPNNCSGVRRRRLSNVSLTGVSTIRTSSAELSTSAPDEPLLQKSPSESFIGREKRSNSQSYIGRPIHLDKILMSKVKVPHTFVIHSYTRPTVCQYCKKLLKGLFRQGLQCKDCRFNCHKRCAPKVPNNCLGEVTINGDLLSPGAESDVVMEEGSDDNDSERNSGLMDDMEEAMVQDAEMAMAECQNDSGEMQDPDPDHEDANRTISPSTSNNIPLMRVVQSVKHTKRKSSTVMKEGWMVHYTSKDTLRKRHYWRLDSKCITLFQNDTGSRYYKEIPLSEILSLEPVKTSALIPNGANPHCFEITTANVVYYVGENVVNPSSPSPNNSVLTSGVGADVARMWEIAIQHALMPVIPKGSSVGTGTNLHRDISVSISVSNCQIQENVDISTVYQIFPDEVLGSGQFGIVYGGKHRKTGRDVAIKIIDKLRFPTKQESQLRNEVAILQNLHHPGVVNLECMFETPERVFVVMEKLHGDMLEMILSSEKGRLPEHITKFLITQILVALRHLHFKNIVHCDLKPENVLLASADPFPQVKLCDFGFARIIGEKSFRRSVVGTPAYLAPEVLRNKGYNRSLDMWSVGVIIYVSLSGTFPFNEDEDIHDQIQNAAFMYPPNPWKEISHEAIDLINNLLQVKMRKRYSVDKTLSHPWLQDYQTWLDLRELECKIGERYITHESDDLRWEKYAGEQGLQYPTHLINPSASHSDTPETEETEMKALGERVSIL
Description: as §1

Chain of 140 purified human kinases (Homo sapiens, UniProt P41240) (P41240 whole entry): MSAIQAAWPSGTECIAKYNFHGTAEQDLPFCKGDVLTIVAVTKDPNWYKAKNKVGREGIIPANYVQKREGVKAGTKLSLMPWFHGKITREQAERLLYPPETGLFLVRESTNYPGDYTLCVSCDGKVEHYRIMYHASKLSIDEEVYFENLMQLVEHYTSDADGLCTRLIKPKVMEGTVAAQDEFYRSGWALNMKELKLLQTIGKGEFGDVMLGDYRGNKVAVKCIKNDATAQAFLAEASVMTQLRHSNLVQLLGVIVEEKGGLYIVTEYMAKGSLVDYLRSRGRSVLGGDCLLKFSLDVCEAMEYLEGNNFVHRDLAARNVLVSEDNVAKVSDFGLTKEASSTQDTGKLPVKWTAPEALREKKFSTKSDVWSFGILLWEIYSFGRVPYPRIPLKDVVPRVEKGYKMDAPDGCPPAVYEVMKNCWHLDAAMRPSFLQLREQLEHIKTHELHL
Chain of 140 purified human kinases (Homo sapiens, UniProt Q16644) (Q16644 whole entry): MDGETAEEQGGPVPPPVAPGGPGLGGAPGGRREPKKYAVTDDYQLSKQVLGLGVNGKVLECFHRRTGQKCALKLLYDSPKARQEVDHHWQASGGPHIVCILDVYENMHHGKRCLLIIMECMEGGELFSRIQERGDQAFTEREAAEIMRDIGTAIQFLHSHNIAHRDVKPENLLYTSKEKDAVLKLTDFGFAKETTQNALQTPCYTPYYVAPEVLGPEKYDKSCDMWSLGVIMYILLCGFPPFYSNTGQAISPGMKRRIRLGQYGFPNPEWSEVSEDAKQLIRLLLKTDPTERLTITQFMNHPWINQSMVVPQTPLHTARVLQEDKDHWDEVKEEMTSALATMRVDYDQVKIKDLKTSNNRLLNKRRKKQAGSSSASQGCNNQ
Chain of 140 purified human kinases (Homo sapiens, UniProt P08069) (P08069 31-1367): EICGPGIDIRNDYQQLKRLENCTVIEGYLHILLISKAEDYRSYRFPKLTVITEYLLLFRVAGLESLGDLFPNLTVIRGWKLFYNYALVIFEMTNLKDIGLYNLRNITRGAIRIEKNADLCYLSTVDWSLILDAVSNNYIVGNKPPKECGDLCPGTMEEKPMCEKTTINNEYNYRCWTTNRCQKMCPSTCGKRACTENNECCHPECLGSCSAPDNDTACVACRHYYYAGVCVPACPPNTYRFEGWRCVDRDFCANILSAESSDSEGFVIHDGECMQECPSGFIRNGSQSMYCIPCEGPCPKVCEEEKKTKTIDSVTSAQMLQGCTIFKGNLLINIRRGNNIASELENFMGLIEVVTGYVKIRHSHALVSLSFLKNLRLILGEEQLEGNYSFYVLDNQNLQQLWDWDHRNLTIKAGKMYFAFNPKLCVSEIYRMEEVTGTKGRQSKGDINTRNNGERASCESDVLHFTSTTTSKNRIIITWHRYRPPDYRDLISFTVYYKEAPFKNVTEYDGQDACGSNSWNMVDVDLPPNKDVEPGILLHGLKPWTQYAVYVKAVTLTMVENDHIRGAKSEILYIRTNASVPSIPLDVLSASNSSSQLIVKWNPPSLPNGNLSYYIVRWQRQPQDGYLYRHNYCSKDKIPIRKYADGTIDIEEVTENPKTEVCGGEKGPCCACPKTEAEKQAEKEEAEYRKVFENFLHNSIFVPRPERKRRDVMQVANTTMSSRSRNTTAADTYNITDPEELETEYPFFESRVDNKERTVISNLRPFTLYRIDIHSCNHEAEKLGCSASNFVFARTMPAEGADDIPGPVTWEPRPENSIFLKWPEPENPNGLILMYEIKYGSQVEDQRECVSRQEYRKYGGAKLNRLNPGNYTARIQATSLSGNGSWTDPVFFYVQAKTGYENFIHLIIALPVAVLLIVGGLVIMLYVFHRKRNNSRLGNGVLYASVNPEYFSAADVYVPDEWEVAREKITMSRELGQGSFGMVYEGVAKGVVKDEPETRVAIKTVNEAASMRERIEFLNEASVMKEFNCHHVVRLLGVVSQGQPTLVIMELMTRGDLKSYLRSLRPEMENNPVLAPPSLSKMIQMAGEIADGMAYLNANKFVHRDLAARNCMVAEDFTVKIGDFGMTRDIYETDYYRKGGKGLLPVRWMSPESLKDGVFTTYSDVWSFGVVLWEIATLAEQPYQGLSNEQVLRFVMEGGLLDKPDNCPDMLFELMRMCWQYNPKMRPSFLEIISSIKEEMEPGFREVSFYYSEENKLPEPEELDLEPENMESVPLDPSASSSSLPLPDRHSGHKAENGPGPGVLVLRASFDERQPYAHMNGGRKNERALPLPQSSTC

SMILES: [Cu+2].[Cu+2].[Cu+2].c1ccc(-c2csc(NCCN(CCNc3nc(-c4ccccn4)cs3)CCNc3nc(-c4ccccn4)cs3)n2)nc1.c1ccc(-c2csc(NCCN(CCNc3nc(-c4ccccn4)cs3)CCNc3nc(-c4ccccn4)cs3)n2)nc1 [[L2Cu3]6+]
- % Inhibition Run 1 [1]: 11.5%
- % Inhibition Run 2 [1]: 10.8%
- % Inhibition, Mean [1]: 11%
- mean % activity [1]: 89%
- % activity ([1]; Run 1): 88.5%
- % activity ([1]; Run 2): 89.2%
- % Inhibition Run 1 ([2]; DYRK2): 27.2%
- % Inhibition Run 2 ([2]; DYRK2): -2.7%
- % Inhibition, Mean ([2]; DYRK2): 12%
- mean % activity ([2]; DYRK2): 88%
- % activity ([2]; DYRK2, Run 1): 72.8%
- % activity ([2]; DYRK2, Run 2): 102.7%
- % Activation, Mean value ([3]; PDK1): 6.45%
- % Inhibition Run 1 ([3]; PDK1): 12.4%
- % Inhibition Run 2 ([3]; PDK1): -25.3%
- % Inhibition, Mean ([3]; PDK1): -6.45%
- mean % activity ([3]; PDK1): 106%
- % activity ([3]; PDK1, Run 1): 87.6%
- % activity ([3]; PDK1, Run 2): 125.3%
- % Inhibition Run 1 ([4]; MAPKAP-K3): 98.5%
- % Inhibition Run 2 ([4]; MAPKAP-K3): 89.3%
- % Inhibition, Mean ([4]; MAPKAP-K3): 94%
- mean % activity ([4]; MAPKAP-K3): 6%
- % activity ([4]; MAPKAP-K3, Run 1): 1.5%
- % activity ([4]; MAPKAP-K3, Run 2): 10.7%
- % Activity inhibition Mean ([4]; MAPKAP-K3): 93.9%
- % Activity inhibition Run 1 ([4]; MAPKAP-K3): 98.5%
- % Activity inhibition Run 2 ([4]; MAPKAP-K3): 89.3%
- % Activity remaining Run 1 ([4]; MAPKAP-K3): 1.50%
- % Activity remaining Run 2 ([4]; MAPKAP-K3): 10.70%
- % Inhibition Run 1 [5]: 0%
- % Inhibition Run 2 [5]: 16.4%
- % Inhibition, Mean [5]: 8%
- mean % activity [5]: 92%
- % activity ([5]; Run 1): 100%
- % activity ([5]; Run 2): 83.6%
- % Inhibition Run 1 ([6]; PKD1): 73%
- % Inhibition Run 2 ([6]; PKD1): 71.7%
- % Inhibition, Mean ([6]; PKD1): 72%
- mean % activity ([6]; PKD1): 28%
- % activity ([6]; PKD1, Run 1): 27%
- % activity ([6]; PKD1, Run 2): 28.3%

SMILES: CC(=O)[O-].CC(=O)[O-].CC(=O)[O-].CC(=O)[O-].CC(=O)[O-].CC(=O)[O-].[Zn+2].[Zn+2].[Zn+2].c1ccc(-c2csc(NCCN(CCNc3nc(-c4ccccn4)cs3)CCNc3nc(-c4ccccn4)cs3)n2)nc1.c1ccc(-c2csc(NCCN(CCNc3nc(-c4ccccn4)cs3)CCNc3nc(-c4ccccn4)cs3)n2)nc1 [[L2Zn3]6+]
- % Inhibition, Mean [1]: 8%
- mean % activity [1]: 92%
- % activity ([1]; duplicate runs): 82% and 102%
- % Activation, Mean value ([2]; DYRK2): 4.5%
- % Inhibition, Mean ([2]; DYRK2): -4.5%
- mean % activity ([2]; DYRK2): 105%
- % activity ([2]; DYRK2, duplicate runs): 97% and 112%
- % Activation, Mean value ([3]; PDK1): 46%
- % Inhibition, Mean ([3]; PDK1): -46%
- mean % activity ([3]; PDK1): 146%
- % Activity Run 1 ([3]; PDK1, 10 µM): 131.0%
- % Activity Run 2 ([3]; PDK1, 10 µM): 160.0%
- % activity ([3]; PDK1, duplicate runs): 131% and 160%
- % Inhibition, Mean ([4]; MAPKAP-K3): 93%
- % Inhibition, Run 1 / Run 2 ([4]; MAPKAP-K3): 94% and 92%
- mean % activity ([4]; MAPKAP-K3): 6.6%
- % Activity inhibition Mean ([4]; MAPKAP-K3): 93.0%
- % Activity inhibition Run 1 ([4]; MAPKAP-K3): 94%
- % Activity inhibition Run 2 ([4]; MAPKAP-K3): 92%
- % Activity remaining Run 1 ([4]; MAPKAP-K3): 6%
- % Activity remaining Run 2 ([4]; MAPKAP-K3): 8%
- % activity ([4]; MAPKAP-K3, duplicate runs): 5.6% and 7.6%
- % Inhibition, Mean [5]: 0.5%
- mean % activity [5]: 100%
- % activity ([5]; duplicate runs): 92% and 107%
- % Inhibition, Mean ([6]; PKD1): 45%
- % Inhibition, Run 1 / Run 2 ([6]; PKD1): 50% and 40%
- mean % activity ([6]; PKD1): 55%
- % activity ([6]; PKD1, duplicate runs): 50% and 60%
